Measured values reported in publication PMC5910208 (ACS chemical biology, 2018).

Key:
LaPhzM = target: T1, LaPhzM (Lysobacter antibioticus, UniProt A0A172J1V3); assay: X-ray crystal structure, […] Å; format: binding; conditions: crystallised with SAM added; SAH found in cofactor site
T1 sequence (A0A172J1V3 1-341): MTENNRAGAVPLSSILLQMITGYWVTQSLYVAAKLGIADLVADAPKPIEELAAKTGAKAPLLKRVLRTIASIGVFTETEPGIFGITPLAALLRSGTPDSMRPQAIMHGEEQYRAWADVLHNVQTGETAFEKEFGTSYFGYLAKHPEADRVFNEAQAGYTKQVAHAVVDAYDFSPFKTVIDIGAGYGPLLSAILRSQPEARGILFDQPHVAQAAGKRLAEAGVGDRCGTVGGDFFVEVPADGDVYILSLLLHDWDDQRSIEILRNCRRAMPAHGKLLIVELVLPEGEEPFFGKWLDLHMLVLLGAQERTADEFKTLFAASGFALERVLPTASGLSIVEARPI

LaPhzNO1 = target: T2, LaPhzNO1 (Lysobacter antibioticus, UniProt A0A172J1R7); assay: HPLC / LC-MS product analysis, coupled with LaPhzS making DHP from PDC; format: biochemical; conditions: NADPH, FAD; phosphate 100 mM pH 7.0, RT
T2 sequence (A0A172J1R7 1-541): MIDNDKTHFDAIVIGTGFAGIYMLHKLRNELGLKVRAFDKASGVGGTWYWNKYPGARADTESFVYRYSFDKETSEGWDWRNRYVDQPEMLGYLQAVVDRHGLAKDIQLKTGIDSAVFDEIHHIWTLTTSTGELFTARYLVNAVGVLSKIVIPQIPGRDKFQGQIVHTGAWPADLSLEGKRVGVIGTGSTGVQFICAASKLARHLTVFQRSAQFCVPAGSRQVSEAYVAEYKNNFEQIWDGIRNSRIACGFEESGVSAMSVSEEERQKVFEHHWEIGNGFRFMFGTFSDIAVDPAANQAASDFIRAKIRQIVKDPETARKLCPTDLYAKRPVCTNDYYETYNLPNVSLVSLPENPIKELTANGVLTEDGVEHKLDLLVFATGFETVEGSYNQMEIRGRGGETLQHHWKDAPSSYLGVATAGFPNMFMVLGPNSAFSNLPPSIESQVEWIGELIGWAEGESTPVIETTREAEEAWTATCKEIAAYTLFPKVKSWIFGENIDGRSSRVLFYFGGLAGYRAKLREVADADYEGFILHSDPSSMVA

[1] = substrate: COc1cccc2c1nc1cccc(O)c1[n+]2[O-]; assay: initial velocity by HPLC of SAH formed, Michaelis-Menten fit; format: biochemical, Lysobacter antibioticus; conditions: co-substrate SAM, Tris 50 mM, pH 7.8, RT

In the case of `Nc1ncnc2c1ncn2[C@@H]1O[C@H](CSCC[C@H](N)C(=O)O)[C@@H](O)[C@H]1O` [S-adenosyl-L-homocysteine], the “X-ray crystal structure, 1.42 Å” value (LaPhzM) is reported as “electron density around the cofactor binding site clearly indicates an S-adenosyl-L-homocysteine (SAH), instead of a SAM”.

For `Oc1cccc2nc3c(O)cccc3nc12` [compound 7, 1,6-dihydroxyphenazine], the “HPLC / LC-MS product analysis, coupled with LaPhzS making DHP from PDC” value (LaPhzNO1) was “When the second enzyme LaPhzNO1 and another cofactor NADPH were added in the reaction mixture”.

B1: LaPhzM (Lysobacter antibioticus) (protein)
chain: T1 sequence (A0A172J1V3 1-341)
Molecule B1 has a Km [1] of 33.6 µM and a kcat [1] of 0.6 min⁻¹.
